In the NIST ThermoML archive (doi:10.1016/j.jct.2009.07.021):
Where “and” joins values, the source holds several entries; their conditions need not be identical. Equal entries are not always repeated.

Legend:
[1] = Crystal, Calculated from knudsen effusion weight loss
[2] = molar enthalpy of transition or fusion; settings: 298.15 K; Crystal; Clausius-Clapeyron Eq with Heat Capacity

CC(=O)c1cc(-c2ccccc2)sc1C [3-acetyl-2-methyl-5-phenylthiophene]
[1]
Settings | vapor or sublimation pressure
321.12 K | 6.03e-05 kPa and 6.33e-05 kPa and 6.05e-05 kPa
323.13 K | 7.9e-05 kPa and 7.98e-05 kPa and 7.73e-05 kPa
325.21 K | 0.000102 kPa and 9.93e-05 kPa and 0.0001 kPa
327.12 K | 0.000128 kPa and 0.000126 kPa and 0.00013 kPa
329.16 K | 0.000162 kPa and 0.00016 kPa and 0.000159 kPa
331.2 K | 0.00021 kPa and 0.000202 kPa and 0.000204 kPa
333.12 K | 0.000259 kPa and 0.000261 kPa and 0.000258 kPa
335.15 K | 0.000328 kPa and 0.000322 kPa and 0.000323 kPa
336.13 K | 0.000366 kPa and 0.000371 kPa and 0.000368 kPa
337.2 K | 0.000425 kPa and 0.000414 kPa and 0.000409 kPa
338.15 K | 0.000461 kPa and 0.000462 kPa and 0.00046 kPa
339.2 K | 0.000535 kPa and 0.000522 kPa and 0.000515 kPa

Settings | molar enthalpy of transition or fusion [kcal/mol]
[2] | 26.03
